Reference: EP1542016A1, “PUMA, phosphorylated p53 and p38 map kinase as markers for HIV-1-induced apoptosis in circulating T cells of infected patient” (Institut Gustave Roussy, priority 2003, dated 2005)

Test system: U937 cells
Assay: Induction of Puma in U937 cells co-cultured with HeLa Env cells
Type: cell-based
Design: dose or concentration left out as unconfirmed
Settings: 36 hours, Fig. 8A
Procedure: Figure 8A. Induction of Puma in U937 cells co-cultured with HeLa Env cells. U937 cells were mixed at different ratios with HeLa Env cells, just before the preparation of cell lysates for immunoblot detection of Puma (Control) or coculture for 36 hours, in the absence or presence of the p53 inhibitor cyclic pifithrin α […]. The percentage of dead U937 cells was determined by trypan blue exclusion.
HeLa cells stably transfected with the Env gene of HIV-1 LAI (HeLa Env) and HeLa cells transfected with CD4 (HeLa CD4) were cocultured at a 1:1 ratio (6), in DMEM medium supplemented with 10 % FCS, L-glutamine, in the absence or presence of roscovitin (1 µM), rapamycin (1 µM, Sigma), cyclic pifithrin-α (10 µM), MG132 (5 µM, Calbiochem), the NF-κB-inhibitory peptide SN50, or its negative control SN50M (20 µM, Biomol). HeLa/U937 cell co-cultures were performed at different ratios (6). U937 or Jurkat cells were cultured with recombinant gp120 protein (500 ng/ml).
Protein samples were prepared from HeLa Env and HeLa CD4 single cells mixed at a 1:1 ratio in lysis buffer (single cells control) or from HeLa Env/CD4 syncytia. Proteins samples from HeLa Env and U937 mixed at different ratios were also prepared and subjected to immunoblot analysis. […]

Compound: Cc1ccc(-c2cn3c4c(sc3n2)CCCC4)cc1 [pifithrin-α, cyclic pifithrin-α]
- upregulation of Puma: not inhibited
